Results as given in patent US10253052B2, “HBED-bisphosphonates, radiometal conjugates and their use as theranostic agents” (Five Eleven Pharma Inc., priority 2015, dated 2019).

How the values were obtained:
[1] = In vivo biodistribution in mice; parameters: species or system normal CD-1 male mice; details: iv
Procedure: Biodistribution experiments were performed by intravenously administering ^68Ga labeled 1a-h, 2, 3, BPAMD, and [^18F]NaF into normal, healthy male CD-1 mice (25-30 g). The injection activity was 20-30 μCi/animal. […] Organs of interest were harvested, weighed, and counts of radioactivity were measured by a gamma counter. The biodistribution of each sample was calculated as a percentage of the injected dose per gram of wet tissue weight (% ID/g). Tibia and femur bones were harvested and counted as bone samples.

[2] = In vitro binding to hydroxyapatite; details: 20 mg hydroxyapatite in saline, 10 min at room temperature
Procedure: Hydroxyapatite (20 mg, Sigma-Aldrich, reagent grade powder) was incubated in isotonic saline (1 mL) for 24 h. Subsequently, either ^68Ga labeled 1a-h, 2, 3, BPAMD, or [^18F]NaF (1 μCi) was added to the hydroxyapatite suspension. After vortexing for 10 seconds, the suspension was incubated for 10 min at room temperature. The samples were then centrifuged at 10,000 rpm for 3 min and the supernatant was removed. The hydroxyapatite fraction was washed twice with saline (1 mL). Radioactivity in the combined supernatants and the hydroxyapatite fraction was measured using a gamma counter. The proportion of the ^68Ga complex binding to hydroxyapatite was determined as percent of ^68Ga absorbed to hydroxyapatite.

For `O=C([O-])CN(CCN(CC(=O)[O-])Cc1cc(CCC(=O)N[C@@H](CC(=O)O)C(=O)O)ccc1[O-])Cc1cc(CCC(=O)NC(P(=O)(O)O)P(=O)(O)O)ccc1[O-].[68Ga+3]` [[^68Ga]1e], the “bone to blood ratio” value ([1]; 2 min) was 1, the “bone to muscle ratio” value ([1]; 2 min) was 5 and the “Biodistribution: Blood” value ([1]; 2 min post injection) was 8.31 ± 0.57 % dose/g. The “Biodistribution: Bone” value ([1]; 2 min post injection) was 8.82 ± 0.77 % dose/g, the “Biodistribution: Brain” value ([1]; 2 min post injection) was 0.20 ± 0.04 % dose/g and the “Biodistribution: Heart” value ([1]; 2 min post injection) was 2.55 ± 0.06 % dose/g. The “Biodistribution: Kidney” value ([1]; 2 min post injection) was 24.8 ± 3.02 % dose/g, the “Biodistribution: Liver” value ([1]; 2 min post injection) was 1.90 ± 0.13 % dose/g and the “Biodistribution: Lung” value ([1]; 2 min post injection) was 4.00 ± 0.20 % dose/g. For the same compound, the “Biodistribution: Muscle” value ([1]; 2 min post injection) was 1.71 ± 0.19 % dose/g, the “Biodistribution: Pancreas” value ([1]; 2 min post injection) was 1.27 ± 0.07 % dose/g and the “Biodistribution: Skin” value ([1]; 2 min post injection) was 2.54 ± 0.26 % dose/g. The “Biodistribution: Spleen” value ([1]; 2 min post injection) was 1.72 ± 0.19 % dose/g, the “bone to blood ratio” value ([1]; 30 min) was 29 and the “bone to muscle ratio” value ([1]; 30 min) was 67. The “Biodistribution: Blood” value ([1]; 30 min (0.5 hr) post injection) was 0.57 ± 0.12 % dose/g, the “Biodistribution: Bone” value ([1]; 30 min (0.5 hr) post injection) was 16.5 ± 0.56 % dose/g and the “Biodistribution: Brain” value ([1]; 30 min (0.5 hr) post injection) was 0.02 ± 0.01 % dose/g. For the same compound, the “Biodistribution: Heart” value ([1]; 30 min (0.5 hr) post injection) was 0.26 ± 0.04 % dose/g, the “Biodistribution: Kidney” value ([1]; 30 min (0.5 hr) post injection) was 2.26 ± 0.27 % dose/g and the “Biodistribution: Liver” value ([1]; 30 min (0.5 hr) post injection) was 0.27 ± 0.02 % dose/g. The “Biodistribution: Lung” value ([1]; 30 min (0.5 hr) post injection) was 0.42 ± 0.08 % dose/g, the “Biodistribution: Muscle” value ([1]; 30 min (0.5 hr) post injection) was 0.25 ± 0.03 % dose/g and the “Biodistribution: Pancreas” value ([1]; 30 min (0.5 hr) post injection) was 0.17 ± 0.05 % dose/g. For the same compound, the “Biodistribution: Skin” value ([1]; 30 min (0.5 hr) post injection) was 0.86 ± 0.22 % dose/g, the “Biodistribution: Spleen” value ([1]; 30 min (0.5 hr) post injection) was 0.19 ± 0.02 % dose/g and the “bone to blood ratio” value ([1]; 60 min) was 138. For the same compound, the “bone to muscle ratio” value ([1]; 60 min) was 258, the “Biodistribution: Blood” value ([1]; 60 min (1 hr) post injection) was 0.11 ± 0.02 % dose/g and the “Biodistribution: Bone” value ([1]; 60 min (1 hr) post injection) was 14.9 ± 1.45 % dose/g. For the same compound, the “Biodistribution: Brain” value ([1]; 60 min (1 hr) post injection) was 0.01 ± 0.00 % dose/g, the “Biodistribution: Heart” value ([1]; 60 min (1 hr) post injection) was 0.08 ± 0.00 % dose/g and the “Biodistribution: Kidney” value ([1]; 60 min (1 hr) post injection) was 2.12 ± 0.55 % dose/g. The “Biodistribution: Liver” value ([1]; 60 min (1 hr) post injection) was 0.14 ± 0.01 % dose/g, the “Biodistribution: Lung” value ([1]; 60 min (1 hr) post injection) was 0.15 ± 0.01 % dose/g and the “Biodistribution: Muscle” value ([1]; 60 min (1 hr) post injection) was 0.06 ± 0.00 % dose/g. For the same compound, the “Biodistribution: Pancreas” value ([1]; 60 min (1 hr) post injection) was 0.06 ± 0.01 % dose/g, the “Biodistribution: Skin” value ([1]; 60 min (1 hr) post injection) was 0.12 ± 0.01 % dose/g and the “Biodistribution: Spleen” value ([1]; 60 min (1 hr) post injection) was 0.09 ± 0.01 % dose/g. For the same compound, the “bone to blood ratio” value ([1]; 120 min) was 230, the “bone to muscle ratio” value ([1]; 120 min) was 411 and the “Biodistribution: Blood” value ([1]; 120 min post injection) was 0.08 ± 0.02 % dose/g. The “Biodistribution: Bone” value ([1]; 120 min post injection) was 17.6 ± 2.61 % dose/g, the “Biodistribution: Brain” value ([1]; 120 min post injection) was 0.01 ± 0.01 % dose/g and the “Biodistribution: Heart” value ([1]; 120 min post injection) was 0.06 ± 0.01 % dose/g. The “Biodistribution: Kidney” value ([1]; 120 min post injection) was 1.41 ± 0.28 % dose/g, the “Biodistribution: Liver” value ([1]; 120 min post injection) was 0.14 ± 0.02 % dose/g and the “Biodistribution: Lung” value ([1]; 120 min post injection) was 0.12 ± 0.02 % dose/g. The “Biodistribution: Muscle” value ([1]; 120 min post injection) was 0.04 ± 0.01 % dose/g, the “Biodistribution: Pancreas” value ([1]; 120 min post injection) was 0.04 ± 0.01 % dose/g and the “Biodistribution: Skin” value ([1]; 120 min post injection) was 0.12 ± 0.03 % dose/g. The “Biodistribution: Spleen” value ([1]; 120 min post injection) was 0.06 ± 0.01 % dose/g and the “Hydroxyapatite Binding (%)” value [2] was 95.8 ± 0.9%.
